For orientation: IC50 means the concentration at which inhibition is half-maximal.

The record followed here is patent publication US11827628B2, “Compositions and methods for inhibition of the JAK pathway” (Rigel Pharmaceuticals, Inc., priority 2005, dated 2023).

Assay [1] concerns IL-4 stimulated expression of CD23 in human Ramos B cells (JAK-1 and JAK-3). The assay can be described thus: Assay for Ramos B-Cell Line Stimulated with IL-4 (CD23 upregulation, FACS). The following applies: Ramos B-cell line stimulated with IL-4; CD23 expression by FACS; read-out: IC50, Example 41. It is filed as cell-based. The essentials:
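Compound effect on IL-4-driven JAK1/JAK3 signalling is gauged as CD23 surface expression, measured by FACS after 20-24 h of stimulation with IL-4 at 50 units/mL final. A 1 h compound pre-treatment at 37 °C precedes stimulation, and IC50 is derived from the results.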
On the technique in general: Flow cytometry measures light scatter and fluorescence of single cells or particles in a stream.

Another assay has as its system Primary human T-cells. The assay can be described thus: Primary Human T-Cell Proliferation Assay Stimulated with IL-2 (CellTiter-Glo). It is filed as cell-based. The following applies: primary human T-cell proliferation stimulated with IL-2; read-out: IC50, Example 42. In short, it runs like this:
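IC50 derived from CellTiter-Glo ATP signal after 72 hours of IL-2-driven proliferation at 37° C. Cells: primary human T-cells from blood, stimulated beforehand 3-4 days on anti-CD3/anti-CD28 with IL-2, then rested from IL-2 before compound exposure in duplicate; IL-2-free wells served as unstimulated control.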
(In general: In ATP-based viability assays light output follows the ATP content of the culture.)

Consider “5-Fluoro-N4-[4-(3-methyl-1,2,4-oxadiazol-3-yl)methyleneoxyphenyl]-N2-[(3-N-propanamido)sulfonylphenyl)]-2,4-pyrimidinediamine [Compound I-262]”, for which the IC50 in assay [1] is 78.3 nM; in the assay with Primary human T-cells it was 164 nM.

As to `Cc1ccc(Nc2ncc(F)c(Nc3cccc(OC4CCCN(C)C4)c3)n2)cc1S(N)(=O)=O` (racemic) [II-1, Racemic N2-(3-aminosulfonyl-4-methylphenyl)-5-fluoro-N4-{3-[(1-methylpiperidin-3-yl)oxy]phenyl}-2,4-pyrimidinediamine], the IC50 in assay [1] is 182 nM; with Primary human T-cells, 1140 nM.

Consider `Cc1ccc(Nc2ncc(F)c(Nc3ccc(OC4CCCN(C)C4)c(Cl)c3)n2)cc1S(N)(=O)=O` (racemic) [II-3, Racemic N2-(3-aminosulfonyl-4-methylphenyl)-N4-{3-chloro-4-[(1-methylpiperidin-3-yl)oxy]phenyl}-5-fluoro-2,4-pyrimidinediamine], for which the values for the IC50 (in assay [1]; in the assay with Primary human T-cells) were 84 nM and 918 nM, respectively.

Take `Cc1ccc(Nc2ncc(F)c(Nc3ccc(OC4CCCN(C)C4)cc3)n2)cc1S(N)(=O)=O` (racemic) [II-4, Racemic N2-(3-aminosulfonyl-4-methylphenyl)-5-fluoro-N4-{4-[(1-methylpiperidin-3-yl)oxy]phenyl}-2,4-pyrimidinediamine]: the IC50 in assay [1] stood at 316 nM; in the assay with Primary human T-cells, 2370 nM.

Turning to `N#CCOc1ccc(Nc2nc(Nc3cccc(S(N)(=O)=O)c3)ncc2F)cc1` [Compound I-17, N2-(3-Aminosulfonyl)phenyl-N4-(4-cyanomethoxy)phenyl-5-fluoro-2,4-pyrimidinediamine], the IC50 in assay [1] came to 48.7 nM; with Primary human T-cells, 43.2 nM.

In the case of `CN1CCN(S(=O)(=O)c2cccc(Nc3ncc(F)c(Nc4ccc(OCC#N)cc4)n3)c2)CC1` [Compound I-19, N4-(4-Cyanomethoxy)phenyl-5-fluoro-N2-[3-(4-methylpiperazin-1-yl)sulfonyl]phenyl-2,4-pyrimidinediamine], the IC50 in assay [1] worked out at 509 nM; with Primary human T-cells it was 1040 nM.

`Cc1ccc(Nc2ncc(F)c(Nc3ccc(OCC#N)cc3)n2)cc1S(N)(=O)=O` [Compound I-20, N2-(3-Aminosulfonyl-4-methyl)phenyl-N4-(4-cyanomethoxy)phenyl-5-fluoro-2,4-pyrimidinediamine]: the IC50 in assay [1] came out at 36.7 nM; in the assay with Primary human T-cells, 66.2 nM.

In the case of `N#CCOc1ccc(Nc2nc(Nc3ccc(Cl)c(S(N)(=O)=O)c3)ncc2F)cc1` [Compound I-21, N2-(3-Aminosulfonyl-4-chlorophenyl)-N4-(4-cyanomethoxy)phenyl-5-fluoro-2,4-pyrimidinediamine], the half-inhibitory concentration (IC50) in assay [1] was 93 nM; in the assay on Primary human T-cells, 258 nM.

As for `Cc1cc(Nc2nc(Nc3ccc(S(N)(=O)=O)cc3)ncc2F)ccc1OCC#N` [Compound I-22, N2-(4-Aminosulfonyl)phenyl-N4-(4-cyanomethoxy-3-methyl)phenyl-5-fluoro-2,4-pyrimidinediamine], the results for the IC50 (in assay [1]; in the assay on Primary human T-cells) were 236 nM and 944 nM, respectively.

`Cc1cc(Nc2nc(Nc3cccc(S(N)(=O)=O)c3)ncc2F)ccc1OCC#N` [Compound I-23, N2-(3-Aminosulfonyl)phenyl-N4-(4-cyanomethoxy-3-methyl)phenyl-5-fluoro-2,4-pyrimidinediamine]: the IC50 in assay [1] was 30.1 nM; with Primary human T-cells it was 88.2 nM.

With `Cc1cc(Nc2nc(Nc3ccc(C)c(S(N)(=O)=O)c3)ncc2F)ccc1OCC#N` [Compound I-24, N2-(3-Aminosulfonyl-4-methyl)phenyl-N4-(4-cyanomethoxy-3-methyl)phenyl-5-fluoro-2,4-pyrimidinediamine], the values for the IC50 (in assay [1]; in the assay on Primary human T-cells) were 54.2 nM and 296 nM, respectively.

On to `Cc1cc(Nc2nc(Nc3ccc(S(N)(=O)=O)cc3)ncc2F)cc(C)c1OCC#N` [Compound I-25, N2-(4-Aminosulfonyl)phenyl-N4-(4-cyanomethoxy-3,5-dimethyl)phenyl-5-fluoro-2,4-pyrimidinediamine], for which the IC50 in assay [1] stood at 55.8 nM; in the assay with Primary human T-cells it was 1610 nM.

Take `Cc1cc(Nc2nc(Nc3cccc(S(N)(=O)=O)c3)ncc2F)cc(C)c1OCC#N` [Compound I-26, N2-(3-Aminosulfonyl)phenyl-N4-(4-cyanomethoxy-3,5-dimethyl)phenyl-5-fluoro-2,4-pyrimidinediamine]: the IC50 in assay [1] came out at 37.8 nM; with Primary human T-cells, 401 nM.

As to `Cc1ccc(Nc2ncc(F)c(Nc3cc(C)c(OCC#N)c(C)c3)n2)cc1S(N)(=O)=O` [Compound I-27, N2-(3-Aminosulfonyl-4-methyl)phenyl-N4-(4-cyanomethoxy-3,5-dimethyl)phenyl-5-fluoro-2,4-pyrimidinediamine], the values for the IC50 (in assay [1]; in the assay with Primary human T-cells) were 61.9 nM and 914 nM, respectively.

In the case of `COc1cc(Nc2ncc(F)c(Nc3ccc(OCC#N)cc3)n2)ccc1S(N)(=O)=O` [Compound I-28, N2-(4-Aminosulfonyl-3-methoxyphenyl)-N4-(4-cyanomethoxy)phenyl-5-fluoro-2,4-pyrimidinediamine], the IC50 in assay [1] turned out to be 64.5 nM; with Primary human T-cells it was 560 nM.

As for `COc1cc(Nc2ncc(F)c(Nc3cc(C)c(OCC#N)c(C)c3)n2)ccc1S(N)(=O)=O` [Compound I-32, N2-(4-Aminosulfonyl-3-methoxy)phenyl-N4-(4-cyanomethoxy-3,5-dimethyl)phenyl-5-fluoro-2,4-pyrimidinediamine], the IC50 came to 161 nM in assay [1] and 2780 nM with Primary human T-cells.

For the compound `N#CCOc1ccc(Nc2nc(Nc3ccc(F)c(S(N)(=O)=O)c3)ncc2F)cc1` [Compound I-33, N2-(3-Aminosulfonyl-4-fluoro)phenyl-N4-(4-cyanomethoxy)phenyl-5-fluoro-2,4-pyrimidinediamine], the values for the IC50 (in assay [1]; in the assay with Primary human T-cells) were 96.5 nM and 170 nM, respectively.

Consider `Cc1cc(COc2ccc(Nc3nc(Nc4cc(Cl)c(C)c(S(N)(=O)=O)c4)ncc3F)cc2C)no1` [Compound I-216, N2-(3-Aminosulfonyl-5-chloro-4-methylphenyl)-5-fluoro-N4-[3-methyl-4-(5-methylisoxazol-3-yl)methyleneoxyphenyl]-2,4-pyrimidinediamine], for which the IC50 worked out at 205 nM in assay [1] and 493 nM with Primary human T-cells.

For the compound `Cc1cc(COc2ccc(Nc3nc(Nc4cc(C)c(F)c(S(N)(=O)=O)c4)ncc3F)cc2)no1` [Compound I-217, N2-(3-Aminosulfonyl-4-fluoro-5-methylphenyl)-5-fluoro-N4-[4-(5-methylisoxazol-3-yl)methyleneoxyphenyl]-2,4-pyrimidinediamine], the figures for the 50% inhibitory concentration (IC50) (in assay [1]; in the assay with Primary human T-cells) were 25 nM and 217 nM, respectively.

On to `Cc1cc(COc2ccc(Nc3nc(Nc4cc(C)c(Cl)c(S(N)(=O)=O)c4)ncc3F)cc2)no1` [Compound I-218, N2-(3-Aminosulfonyl-4-chloro-5-methylphenyl)-5-fluoro-N4-[4-(5-methylisoxazol-3-yl)methyleneoxyphenyl]-2,4-pyrimidinediamine], for which the IC50 is 72.6 nM in assay [1] and 116 nM with Primary human T-cells.

As for `Cc1cc(COc2ccc(Nc3nc(Nc4ccc(C)c(S(N)(=O)=O)c4)ncc3F)cc2)no1` [Compound I-219, N2-(3-Aminosulfonyl-4-methylphenyl)-5-fluoro-N4-[4-(5-methylisoxazol-3-yl)methyleneoxyphenyl]-2,4-pyrimidinediamine], the values for the IC50 (in assay [1]; in the assay with Primary human T-cells) were 31.6 nM and 123 nM, respectively.
